Biological target: T1, mutant B-RAF (Homo sapiens, UniProt P15056, V600E)
T1 construct: purchased Upstate (Charlottesville, Va.)
Assay: RAF biochemical assay (MEK-1 phosphorylation, anti-phospho MEK1/2 detection)
Conditions: for IC50: read-out: Mutant B-RAF IC50; for inhibition at 10 µM: read-out: Mutant B-RAF % inhibition
How it was run: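 Detection is by ELISA: after a 30 min room-temperature reaction, plate-captured GST-MEK-1 is probed with anti-phospho MEK1/2, then an AP-tagged secondary antibody with fluorescent Attophos read-out.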

T1 sequence (P15056 whole entry V600E): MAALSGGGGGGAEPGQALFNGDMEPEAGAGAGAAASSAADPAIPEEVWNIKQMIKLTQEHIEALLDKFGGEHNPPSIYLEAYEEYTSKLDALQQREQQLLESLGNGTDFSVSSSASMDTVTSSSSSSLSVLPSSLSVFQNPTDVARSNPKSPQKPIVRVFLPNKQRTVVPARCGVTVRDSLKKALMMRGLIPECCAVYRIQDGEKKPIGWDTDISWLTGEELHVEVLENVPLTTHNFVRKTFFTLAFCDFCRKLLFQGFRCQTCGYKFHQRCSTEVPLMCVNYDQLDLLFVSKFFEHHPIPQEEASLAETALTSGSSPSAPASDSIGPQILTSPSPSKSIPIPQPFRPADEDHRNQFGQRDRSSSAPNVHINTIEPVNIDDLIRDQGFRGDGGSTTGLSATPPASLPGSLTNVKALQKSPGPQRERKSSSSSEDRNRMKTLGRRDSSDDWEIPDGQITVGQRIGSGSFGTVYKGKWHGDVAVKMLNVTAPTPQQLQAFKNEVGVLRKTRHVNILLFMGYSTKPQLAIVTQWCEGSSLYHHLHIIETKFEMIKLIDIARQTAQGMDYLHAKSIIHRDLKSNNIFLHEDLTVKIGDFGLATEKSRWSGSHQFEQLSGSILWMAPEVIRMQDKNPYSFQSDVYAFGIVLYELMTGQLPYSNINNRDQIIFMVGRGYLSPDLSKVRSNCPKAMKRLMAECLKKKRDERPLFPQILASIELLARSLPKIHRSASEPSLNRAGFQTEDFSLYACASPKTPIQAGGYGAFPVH

SMILES	IC50 [nM]	inhibition at 10 µM [%]
NCCCC(=O)Nc1ccccc1-c1nc2sccn2c1-c1ccnc(N[C@@H]2CCCN(S(=O)(=O)c3ccc(Cl)cc3)C2)n1 [Example 136, 4-amino-N-(2-{5-[2-({(3R)-1-[(4-chlorophenyl)sulfonyl]piperidin-3-yl}amino)pyrimidin-4-yl]imidazo[2,1-b][1,3]thiazol-6-yl}phenyl)butanamide]	> 3000	–
COc1cccc(-c2nc3sccn3c2-c2ccnc(N[C@H]3CCCNC3)n2)c1 [Example 137, 4-[6-(3-methoxyphenyl)imidazo[2,1-b][1,3]thiazol-5-yl]-N-[(3S)-piperidin-3-yl]pyrimidin-2-amine]	–	42
NCCC(=O)Nc1ccccc1-c1nc2sccn2c1-c1ccnc(N[C@@H]2CCCN(S(=O)(=O)c3ccc(Cl)cc3)C2)n1 [Example 138, N~1~-(2-{5-[2-({(3R)-1-[(4-chlorophenyl)sulfonyl]piperidin-3-yl}amino)pyrimidin-4-yl]imidazo[2,1-b][1,3]thiazol-6-yl}phenyl)-beta-alaninamide]	–	82
COc1cccc(-c2nc3sccn3c2-c2ccnc(N[C@H]3CCCN(S(=O)(=O)c4ccc(Cl)cc4)C3)n2)c1 [Example 139, N-{(3S)-1-[(4-chlorophenyl)sulfonyl]piperidin-3-yl}-4-[6-(3-methoxyphenyl)imidazo[2,1-b][1,3]thiazol-5-yl]pyrimidin-2-amine]	–	41
O=S(=O)(c1ccc(Cl)cc1)N1CCC[C@H](Nc2nccc(-c3c(-c4cccc(O)c4)nc4sccn34)n2)C1 [Example 140, 3-{5-[2-({(3S)-1-[(4-chlorophenyl)sulfonyl]piperidin-3-yl}amino)pyrimidin-4-yl]imidazo[2,1-b][1,3]thiazol-6-yl}phenol]	953	–
NCC(=O)Nc1ccccc1-c1nc2sccn2c1-c1ccnc(N[C@@H]2CCCN(S(=O)(=O)c3ccc(Cl)cc3)C2)n1 [Example 141, N~1~-(2-{5-[2-({(3R)-1-[(4-chlorophenyl)sulfonyl]piperidin-3-yl}amino)pyrimidin-4-yl]imidazo[2,1-b][1,3]thiazol-6-yl}phenyl)glycinamide]	814	–
COc1cccc(-c2nc3sccn3c2-c2ccnc(N[C@@H]3CCCN(S(=O)(=O)c4cccc(OC)c4)C3)n2)c1 [Example 142, 4-[6-(3-methoxyphenyl)imidazo[2,1-b][1,3]thiazol-5-yl]-N-{(3R)-1-[(3-methoxyphenyl)sulfonyl]piperidin-3-yl}pyrimidin-2-amine]	–	56
O=S(=O)(c1cccc(O)c1)N1CCC[C@@H](Nc2nccc(-c3c(-c4cccc(O)c4)nc4sccn34)n2)C1 [Example 143, 3-{[(3R)-3-({4-[6-(3-hydroxyphenyl)imidazo[2,1-b][1,3]thiazol-5-yl]pyrimidin-2-yl}amino)piperidin-1-yl]sulfonyl}phenol]	19	–
COc1ccc(OC)c(-c2nc3sccn3c2-c2ccnc(N[C@@H]3CCCN(S(=O)(=O)c4ccc(Cl)cc4)C3)n2)c1 [Example 144, N-{(3R)-1-[(4-chlorophenyl)sulfonyl]piperidin-3-yl}-4-[6-(2,5-dimethoxyphenyl)imidazo[2,1-b][1,3]thiazol-5-yl]pyrimidin-2-amine]	–	69
O=S(=O)(c1ccc(Cl)cc1)N1CCC[C@@H](Nc2nccc(-c3c(-c4cc(O)ccc4O)nc4sccn34)n2)C1 [Example 145, 2-{5-(2-({(3R)-1-[(4-chlorophenyl)sulfonyl]piperidin-3-yl}amino)pyrimidin-4-yl]imidazo[2,1-b][1,3]thiazol-6-yl}benzene-1,4-diol]	92	–
COc1cccc(-c2nc3sccn3c2-c2ccnc(N[C@@H]3CCCN(C[C@@H]4COC(C)(C)O4)C3)n2)c1 [Example 146, N-((3R)-1-{[(4R)-2,2-dimethyl-1,3-dioxolan-4-yl]methyl}piper-idin-3-yl)-4-[6-(3-methoxy-phenyl)imidazo[2,1-b][1,3]thiazol-5-yl]pyrimidin-2-amine]	–	43
COc1cccc(-c2nc3sccn3c2-c2ccnc(N[C@@H]3CCCN(C[C@@H](O)CO)C3)n2)c1 [Example 147, (2R)-3-[(3R)-3-({4-[6-(3-methoxyphenyl)imidazo[2,1-b][1,3]thiazol-5-yl]pyrimidin-2-yl}amino)piperidin-1-yl]propane-1,2-diol]	> 3000	–
OC[C@H](O)CN1CCC[C@@H](Nc2nccc(-c3c(-c4cccc(O)c4)nc4sccn34)n2)C1 [Example 148, (2R)-3-[(3R)-3-({4-[6-(3-hydroxyphenyl)imidazo[2,1-b][1,3]thiazol-5-yl]pyrimidin-2-yl}amino)piperidin-1-yl]propane-1,2-diol]	> 3000	–
COc1ccc(S(=O)(=O)N2CCC[C@@H](Nc3nccc(-c4c(-c5cccc(OC)c5)nc5sccn45)n3)C2)cc1 [Example 149, 4-[6-(3-methoxyphenyl)imidazo[2,1-b][1,3]thiazol-5-yl]-N-{(3R)-1-[(4-methoxyphenyl)sulfonyl]piperidin-3-yl}pyrimidin-2-amine]	188	–
O=S(=O)(c1ccc(O)cc1)N1CCC[C@@H](Nc2nccc(-c3c(-c4cccc(O)c4)nc4sccn34)n2)C1 [Example 150, 3-{5-[2-({(3R)-1-[(4-hydroxyphenyl)sulfonyl]piperidin-3-yl}amino)pyrimidin-4-yl]imidazo[2,1-b][1,3]thiazol-6-yl}phenol]	9	–
COc1cccc(-c2nc3sccn3c2-c2ccnc(N[C@@H]3CCCN(S(C)(=O)=O)C3)n2)c1 [Example 151, 4-[6-(3-methoxyphenyl)imidazo[2,1-b][1,3]thiazol-5-yl]-N-[(3R)-1-(methylsulfonyl)piperidin-3-yl]pyrimidin-2-amine]	850	–

SMILES	IC50 [nM]	inhibition at 10 µM [%]
CS(=O)(=O)N1CCC[C@@H](Nc2nccc(-c3c(-c4cccc(O)c4)nc4sccn34)n2)C1 [Example 152, 3-[5-(2-{[(3R)-1-(methylsulfonyl)piperidin-3-yl]amino}pyrimidin-4-yl)imidazo[2,1-b][1,3]thiazol-6-yl]phenol]	116	–
O=S(=O)(c1ccc(F)cc1)N1CCC(Nc2nccc(-c3c(-c4ccc(F)cc4)nc4sccn34)n2)CC1 [Example 153, 4-[6-(4-fiuorophenyl)imidazo[2,1-b][1,3]thiazol-5-yl]-N-{1-[(4-fluorophenyl)sulfonyl]piperidin-4-yl}pyrimidin-2-amine]	78	–
CCN1CCC(Nc2nccc(-c3c(-c4ccc(F)cc4)nc4sccn34)n2)CC1 [Example 154, N-(1-ethylpiperidin-4-yl)-4-[6-(4-fluorophenyl)imidazo[2,1-b][1,3]thiazol-5-yl]pyrimidin-2-amine]	–	36
Fc1ccc(-c2nc3sccn3c2-c2ccnc(NC3CCNCC3)n2)cc1 [Example 155, 4-[6-(4-fluorophenyl)imidazo[2,1-b][1,3]thiazol-5-yl]-N-piperidin-4-ylpyrimidin-2-amine]	2360	–
CCNC(=O)N1CCC(Nc2nccc(-c3c(-c4ccc(F)cc4)nc4occn34)n2)CC1 [Example 156, N-ethyl-4-({4-[6-(4-fluorophenyl)imidazo[2,1-b][1,3]oxazol-5-yl]pyrimidin-2-yl}amino)piperidine-1-carboxamide]	428	–
O=S(=O)(c1ccc(F)cc1)N1CCC(Nc2nccc(-c3c(-c4ccc(F)cc4)nc4occn34)n2)CC1 [Example 157, 4-[6-(4-fluorophenyl)imidazo[2,1-b][1,3]oxazol-5-yl]-N-{1-[(4-fluorophenyl)sulfonyl]piperidin-4-yl}pyrimidin-2-amine]	675	–
COc1ccc(C(=O)N2CCC(Nc3nccc(-c4c(-c5ccc(F)cc5)nc5occn45)n3)CC2)cc1 [Example 158, 4-[6-(4-fluorophenyl)imidazo[2,1-b][1,3]oxazol-5-yl]-N-[1-(4-methoxybenzoyl)piperidin-4-yl]pyrimidin-2-amine]	465	–
O=C(c1ccccc1)N1CCC(Nc2nccc(-c3c(-c4ccc(F)cc4)nc4occn34)n2)CC1 [Example 159, N-(1-benzoylpiperidin-4-yl)-4-[6-(4-fluorophenyl)imidazo[2,1-b][1,3]oxazol-5-yl]pyrimidin-2-amine]	1010	–
O=C(COc1ccc(Cl)cc1)N1CCC(Nc2nccc(-c3c(-c4ccc(F)cc4)nc4occn34)n2)CC1 [Example 160, N-{1-[(4-chlorophenoxy)acetyl]piperidin-4-yl}-4-[6-(4-fluorophenyl)imidazo[2,1-b][1,3]oxazol-5-yl]pyrimidin-2-amine]	3850	–
O=C(c1cccc2cccnc12)N1CCC(Nc2nccc(-c3c(-c4ccc(F)cc4)nc4occn34)n2)CC1 [Example 161, 4-[6-(4-fluorophenyl)Imidazo[2,1-b][1,3]oxazol-5-yl]-N-[1-(quinolin-8-ylcarbonyl)piperidin-4-yl]pyrimidin-2-amine]	1570	–
O=C(C1CCNCC1)N1CCC(Nc2nccc(-c3c(-c4ccc(F)cc4)nc4occn34)n2)CC1 [Example 162, 4-[6-(4-fluorophenyl)imidazo[2,1-b][1,3]oxazol-5-yl]-N-[1-(piperidin-4-ylcarbonyl)piper-idin-4-yl]pyrimidin-2-amine]	1320	–
COCC(=O)N1CCC(Nc2nccc(-c3c(-c4ccc(F)cc4)nc4occn34)n2)CC1 [Example 163, 4-[6-(4-fluorophenyl)imidazo[2,1-b][1,3]oxazol-5-yl]-N-[1-(methoxyacetyl)piperidin-4-yl]pyrimidin-2-amine]	–	53
O=C(C1CCCCC1)N1CCC(Nc2nccc(-c3c(-c4ccc(F)cc4)nc4occn34)n2)CC1 [Example 164, N-[1-(cyclohexylcarbonyl)piperidin-4-yl]-4-[6-(4-fluorophenyl)imidazo[2,1-b][1,3]oxazol-5-yl]pyrimidin-2-amine]	–	38
O=C(c1ccncc1)N1CCC(Nc2nccc(-c3c(-c4ccc(F)cc4)nc4occn34)n2)CC1 [Example 165, 4-[6-(4-fluorophenyl)imidazo[2,1-b][1,3]oxazol-5-yl]-N-(1-isonicotinoylpiperidin-4-yl)pyrimidin-2-amine]	–	33
O=C(c1ccco1)N1CCC(Nc2nccc(-c3c(-c4ccc(F)cc4)nc4occn34)n2)CC1 [Example 166, 4-[6-(4-fluorophenyl)imidazo[2,1-b][1,3]oxazol-5-yl]-N-[1-(2-furoyl)piperidin-4-yl]pyrimidin-2-amine]	–	76

Reference: patent US7501430B2 (ArQule, Inc., priority 2006, dated 2009)
